Assay [1] concerns the target T1, Recombinant JAK3 (Amino acids 781-1124) (Homo sapiens, UniProt P52333).
T1 construct: JAK3 (Amino acids 781-1124; NM_000215.3); made in house; host or cells: baculovirus expression system (Bac-to-Bac)
The experiment in a line: Kinase-Glo Luminescent Kinase Assay, recombinant JAK3. Type of assay: biochemical. As to conditions: 200 μg/ml Poly Glu-Tyr (4:1), ATP 1 uM, 90 min room temperature, luminescence. The text has this: (§1) Recombinant JAK1 (Amino acids 850-1154; NM_002227.2), JAK2 (Amino acids 808-1132; NM_004972.3) and JAK3 (Amino acids 781-1124; NM_000215.3) used in the studies were expressed using Invitrogen's Bac-to-Bac baculovirus expression system according to manufacturer's instructions. Adenosine 5′-triphosphate was obtained from Sigma Aldrich chemicals (Cat # A7699). Poly Glu-Tyr (4:1) sodium salt was obtained from Sigma Aldrich (Cat # P0275), Kinase Glo® Luminescent Kinase assay kit was obtained from Promega (Cat # V6713) Kinase activity was assessed by Promega Kinase-Glo® Luminescent Kinase Assay kit using 200 μg/ml Poly Glu-Tyr (4:1) as substrate and ATP at 1 uM concentration. The reactions were carried out in 384 well plates in total reaction volume of 20 uL. Reaction mixtures contained 50 mM HEPES pH 7.4, 5 mM MgCl2, 1 mM DTT, 0.01% BSA, 0.01% Tween 20. Kinase was pre-incubated with compounds or 1% DMSO for 5 min before addition of substrate and ATP to check for inhibition. Kinase reactions were carried out at room temperature for 90 min. The reactions were stopped by adding 5 μl of Kinase Glo® reagent & 10 μl of reaction mixture followed by measuring luminescence. The luminescent signal is correlated with the amount of ATP present at the end of kinase reaction and is inversely correlated with the amount of kinase activity. For each data point, % inhibition is calculated based on uninhibited reaction (without compound) which is considered as 100% activity over no enzyme or substrate controls. Dose response data is then fit using a four parameter logistic equation using Graph-pad Prism 5 software to determine inhibition constant 50 (IC50).
On the technique in general: Kinase-Glo measures the ATP left after a reaction by luminescence.

In assay [2] the target is T2, Recombinant JAK1 (Amino acids 850-1154) (Homo sapiens, UniProt P23458).
T2 construct: Recombinant JAK1 (Amino acids 850-1154; NM_002227.2); made in house; host or cells: baculovirus expression system (Bac-to-Bac)
T2 sequence (P23458 850-1154): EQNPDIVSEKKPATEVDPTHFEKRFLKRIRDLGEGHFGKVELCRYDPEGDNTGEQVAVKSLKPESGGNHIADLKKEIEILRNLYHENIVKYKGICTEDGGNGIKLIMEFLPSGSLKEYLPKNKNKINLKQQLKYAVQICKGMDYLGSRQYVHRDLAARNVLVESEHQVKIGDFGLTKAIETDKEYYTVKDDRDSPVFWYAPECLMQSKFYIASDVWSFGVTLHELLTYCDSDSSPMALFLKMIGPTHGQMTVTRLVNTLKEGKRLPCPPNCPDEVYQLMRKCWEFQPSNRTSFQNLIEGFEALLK
The experiment in a line: Kinase-Glo Luminescent Kinase Assay, recombinant JAK1. Type of assay: biochemical. As to conditions: 200 μg/ml Poly Glu-Tyr (4:1), ATP 1 uM, 90 min room temperature, luminescence.
Excerpt: as §1

T1 sequence (P52333 781-1124): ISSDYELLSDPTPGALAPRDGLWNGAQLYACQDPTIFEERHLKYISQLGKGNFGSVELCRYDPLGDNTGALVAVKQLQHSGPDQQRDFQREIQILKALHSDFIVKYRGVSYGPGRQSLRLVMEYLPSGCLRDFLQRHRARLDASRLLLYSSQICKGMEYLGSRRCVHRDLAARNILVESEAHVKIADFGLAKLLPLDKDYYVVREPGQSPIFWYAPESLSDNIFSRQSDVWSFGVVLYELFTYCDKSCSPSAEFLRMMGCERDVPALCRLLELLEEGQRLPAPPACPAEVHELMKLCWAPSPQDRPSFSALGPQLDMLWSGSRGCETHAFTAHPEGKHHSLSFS

What is called IC50 is the concentration at which inhibition is half-maximal. Take `CC1CCC(C(=O)NC2CC2)CN1c1ccnc2cnc3[nH]ccc3c12` (single isomer, unassigned) [Ex. 88A, cis-N-cyclopropyl-6-methyl-1-(3H-pyrrolo[3,2-f][1,7]naphthyridin-9-yl)piperidine-3-carboxamide]: the IC50 in assay [1] was 1 to 20 nM; in assay [2] it was above 20 nM.
The matching figures for `CC1CCC(C(=O)NC2CC2)CN1c1ccnc2cnc3[nH]ccc3c12` (single isomer, unassigned) [Ex. 88B, trans-N-cyclopropyl-6-methyl-1-(3H-pyrrolo[3,2-f][1,7]naphthyridin-9-yl)piperidine-3-carboxamide]: 1 to 20 nM and above 20 nM.
For the compound `CCOC(=O)c1cnc2cnc3c(ccn3S(=O)(=O)c3ccc(C)cc3)c2c1O` [Comp. 8, Ethyl 9-hydroxy-3-(p-tolylsulfonyl)pyrrolo[3,2-f][1,7]naphthyridine-8-carboxylate], the IC50 in assay [1] is above 20 nM.
Turning to `CC(C)(C)OC(=O)N1CCCC(c2ccnc3cnc4[nH]ccc4c23)C1` (centres unmarked) [Comp. 41, tert-butyl 3-(3H-pyrrolo[3,2-f][1,7]naphthyridin-9-yl)piperidine-1-carboxylate], the IC50 in assay [1] and in assay [2] was 1 to 20 nM each time.
Take `CC(C)(C)OC(=O)N1CCC(c2ccnc3cnc4[nH]ccc4c23)C1` (centres unmarked) [Comp. 50, tert-butyl 3-(3H-pyrrolo[3,2-f][1,7]naphthyridin-9-yl)pyrrolidine-1-carboxylate]: the IC50 in assay [1] was above 20 nM; in assay [2] it was 1 to 20 nM.
The matching figures for `O=C(CC(F)(F)F)N1CCC(c2ccnc3cnc4[nH]ccc4c23)CC1` [Comp. 88, 3,3,3-trifluoro-1-[4-(3H-pyrrolo[3,2-f][1,7]naphthyridin-9-yl)-1-piperidyl]propan-1-one]: above 20 nM and above 20 nM.
With `NC1CCN(c2ccnc3cnc4[nH]ccc4c23)C1` (centres unmarked) [Comp. 125, 1-(3H-pyrrolo[3,2-f][1,7]naphthyridin-9-yl)pyrrolidin-3-amine], in assay [1], the half-inhibitory concentration (IC50) was above 20 nM.
For `CC(C)(C)OC(=O)N1CCN(c2ccnc3cnc4[nH]ccc4c23)CC1` [Comp. 127, tert-butyl 4-(3H-pyrrolo[3,2-f][1,7]naphthyridin-9-yl)piperazine-1-carboxylate], the IC50 in assay [1] and in assay [2] was above 20 nM in each case.
Take `O=C(C1CC1)N1CCCC(c2ccnc3cnc4[nH]ccc4c23)C1` (centres unmarked) [Ex. 2, cyclopropyl-[3-(3H-pyrrolo[3,2-f][1,7]naphthyridin-9-yl)-1-piperidyl]methanone]: the IC50 in assay [1] and in assay [2] was 1 to 20 nM in each case.
Take `CC(C)C(=O)N1CCCC(c2ccnc3cnc4[nH]ccc4c23)C1` (centres unmarked) [Ex. 3, 2-methyl-1-[3-(3H-pyrrolo[3,2-f][1,7]naphthyridin-9-yl)-1-piperidyl]propan-1-one]: the IC50 in assay [1] and in assay [2] was above 20 nM each time.
Take `O=C(CC(F)(F)F)N1CCC[C@@H](c2ccnc3cnc4[nH]ccc4c23)C1` [Ex. 4B, (S)3,3,3-trifluoro-1-[3-(3H-pyrrolo[3,2-f][1,7]naphthyridin-9-yl)-1-piperidyl]propan-1-one]: the IC50 in assay [1] is above 20 nM.
On to `O=C(CC(F)(F)F)N1CCC(c2ncnc3cnc4[nH]ccc4c23)C1` (centres unmarked) [Ex. 33, 3,3,3-Trifluoro-1-[3-(3H-3,4,6,8-tetraaza-cyclopenta[a]naphthalen-9-yl)-pyrrolidin-1-yl]-propan-1-one], for which the concentration for half-maximal inhibition (IC50) in assay [1] is above 20 nM.
Still for that read-out and setting: next, `N#CCC(=O)N1CCC(c2ncnc3cnc4[nH]ccc4c23)C1` (centres unmarked) [Ex. 34, 3-Oxo-3-[3-(3H-3,4,6,8-tetraaza-cyclopenta[a]naphthalen-9-yl)-pyrrolidin-1-yl]-propionitrile]: above 20 nM; `O=C(C1CC1)N1CCC(c2ncnc3cnc4[nH]ccc4c23)C1` (centres unmarked) [Ex. 35, Cyclopropyl-[3-(3H-3,4,6,8-tetraaza-cyclopenta[a]naphthalen-9-yl)-pyrrolidin-1-yl]-methanone]: above 20 nM; `CC(C)C(=O)N1CCC(c2ncnc3cnc4[nH]ccc4c23)C1` (centres unmarked) [Ex. 36, 2-Methyl-1-[3-(3H-3,4,6,8-tetraaza-cyclopenta[a]naphthalen-9-yl)-pyrrolidin-1-yl]-propan-1-one]: above 20 nM.
The same measure, in the same setting: as for `O=C(CCC(F)(F)F)N1CCC(c2ncnc3cnc4[nH]ccc4c23)C1` (centres unmarked) [Ex. 37, 4,4,4-Trifluoro-1-[3-(3H-3,4,6,8-tetraaza-cyclopenta[a]naphthalen-9-yl)-pyrrolidin-1-yl]-butan-1-one], the figure is above 20 nM; as for `CC(C)(C)C(=O)N1CCC(c2ncnc3cnc4[nH]ccc4c23)C1` (centres unmarked) [Ex. 38, 2,2-Dimethyl-1-[3-(3H-3,4,6,8-tetraaza-cyclopenta[a]naphthalen-9-yl)-pyrrolidin-1-yl]-propan-1-one], above 20 nM.
As for `CC(C)CS(=O)(=O)N1CCC(c2ncnc3cnc4[nH]ccc4c23)C1` (centres unmarked) [Ex. 40, 9-[1-(2-Methyl-propane-1-sulfonyl)-pyrrolidin-3-yl]-3H-3,4,6,8-tetraaza-cyclopenta[a]naphthalene], the IC50 in assay [1] was above 20 nM.
Still for that read-out and setting: as for `N#CCC(=O)N1CC=C(c2ccnc3cnc4[nH]ccc4c23)C1` [Ex. 41, 3-oxo-3-[3-(3H-pyrrolo[3,2-f][1,7]naphthyridin-9-yl)-2,5-dihydropyrrolo-1-yl]propanenitrile], the figure is above 20 nM; as for `O=C(CC(F)(F)F)N1CC=C(c2ccnc3cnc4[nH]ccc4c23)C1` [Ex. 42, 3,3,3-trifluoro-1-[3-(3H-pyrrolo[3,2-f][1,7]naphthyridin-9-yl)-2,5-dihyropyrrol-1-yl]propan-1-one], above 20 nM; as for `c1cc(N2CCOCC2)c2c(cnc3[nH]ccc32)n1` [Ex. 64, 4-(3H-pyrrolo[3,2-f][1,7]naphthyridin-9-yl)morpholine], above 20 nM.
With `CN(C(=O)C1CCCC1)C1CCCN(c2ccnc3cnc4[nH]ccc4c23)C1` (centres unmarked) [Ex. 66, N-methyl-N-[1-(3H-pyrrolo[3,2-f][1,7]naphthyridin-9-yl)-3-piperidyl]cyclopentane-carboxamide], the IC50 in assay [1] was above 20 nM.
With `COCCNC(=O)C1CCCN(c2ccnc3cnc4[nH]ccc4c23)C1` (centres unmarked) [Ex. 69, N-(2-methoxyethyl)-1-(3H-pyrrolo[3,2-f][1,7]naphthyridin-9-yl)piperidine-3-carboxamide], the IC50 in assay [1] was above 20 nM.
The same measure, in the same setting: next, `c1cc(N2CCCC(N3CCOCC3)C2)c2c(cnc3[nH]ccc32)n1` (centres unmarked) [Ex. 70, 4-[1-(3H-pyrrolo[3,2-f][1,7]naphthyridin-9-yl)-3-piperidiyl] morpholine]: above 20 nM; `CC(C)CS(=O)(=O)NC1CCN(c2ccnc3cnc4[nH]ccc4c23)C1` (centres unmarked) [Ex. 93, 2-methyl-N-[1-(3H-pyrrolo[3,2-f][1,7]naphthyridin-9-yl)pyrrolidin-3-yl]propane-1-sulfonamide]: above 20 nM.
The same measure, in the same setting: as for `N#CCS(=O)(=O)NC1CCN(c2ccnc3cnc4[nH]ccc4c23)C1` (centres unmarked) [Ex. 94, 1-cyano-N-[1-(3H-pyrrolo[3,2-f][1,7]naphthyridin-9-yl)pyrrolidin-3-yl]methanesulfonamide], the figure is 1 to 20 nM.
On to `CC(C)NC(=O)NC1CCN(c2ccnc3cnc4[nH]ccc4c23)C1` (centres unmarked) [Ex. 95, 1-isopropyl-3-[1-(3H-pyrrolo[3,2-f][1,7]naphthyridin-9-yl)pyrrolidin-3-yl]urea], for which the IC50 in assay [1] is above 20 nM.
Same read-out and setting: as for `O=C(NC1CCN(c2ccnc3cnc4[nH]ccc4c23)C1)C1CC1` (centres unmarked) [Ex. 96, N-[1-(3H-pyrrolo[3,2-f][1,7]naphthyridin-9-yl)pyrrolidin-3-yl]cyclopropanecarbox-amide], the figure is above 20 nM.
As to `CC(C)C(=O)NC1CCN(c2ccnc3cnc4[nH]ccc4c23)C1` (centres unmarked) [Ex. 97, 2-methyl-N-[1-(3H-pyrrolo[3,2-f][1,7]naphthyridin-9-yl)pyrrolidin-3-yl]propanamide], the IC50 in assay [1] was above 20 nM.
Still for that read-out and setting: next, `O=C(CC1CC1)NC1CCN(c2ccnc3cnc4[nH]ccc4c23)C1` (centres unmarked) [Ex. 98, 2-cyclopropyl-N-[1-(3H-pyrrolo[3,2-f][1,7]naphthyridin-9-yl)pyrrolidin-3-yl]acetamide]: above 20 nM.
As to `N#CCC(=O)NC1CCN(c2ccnc3cnc4[nH]ccc4c23)C1` (centres unmarked) [Ex. 99, 2-cyano-N-[1-(3H-pyrrolo[3,2-f][1,7]naphthyridin-9-yl)pyrrolidin-3-yl]acetamide], the IC50 in assay [1] was above 20 nM.
Still for that read-out and setting: next, `O=C(CC(F)(F)F)NC1CCN(c2ccnc3cnc4[nH]ccc4c23)C1` (centres unmarked) [Ex. 100, 3,3,3-trifluoro-N-[1-(3H-pyrrolo[3,2-f][1,7]naphthyridin-9-yl)pyrrolidin-3-yl]propanamide]: 1 to 20 nM.
Consider `CS(=O)(=O)NC1CCN(c2ccnc3cnc4[nH]ccc4c23)C1` (centres unmarked) [Ex. 101, N-[1-(3H-pyrrolo[3,2-f][1,7]naphthyridin-9-yl)pyrrolidin-3-yl]methanesulfonamide], for which the IC50 in assay [1] was in the range of 1 to 20 nM.

For the origin of these results see patent publication US9115133B2, “Substituted fused tricyclic compounds, compositions and medicinal applications thereof” (Advinus Therapeutics Limited, priority 2011, dated 2015).
